Experimental data as given in patent US20230263822A1, “MODULATION OF FACTOR 11 EXPRESSION” (Ionis Pharmaceuticals, Inc., priority 2008, published 2023).
Strand notation (5' to 3'): a small letter for the sugar, then the base; units joined by * are phosphorothioate-linked, units joined directly phosphodiester-linked; [ ] holds rarer units or linkages, { } end groups; capitals alone tell only the bases. e = 2'-O-(2-methoxyethyl) (MOE); [5mC] = 5-methylcytosine; d = 2'-deoxy (DNA)

Key:
Assay type in all cases: cell-based
[1] = system: human Factor 11 mRNA; assay: Antisense inhibition of human Factor 11 in HepG2 cells by microwalk gapmers, lipofectin, 75 nM (Example 3)
How it was run: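 HepG2 cells (10,000/well) were transfected via lipofectin with 75 nM 20-mer MOE gapmers (phosphorothioate, 5-methyl-C) for about 24 h. Factor 11 mRNA was measured by qRT-PCR, normalized to RIBOGREEN total RNA, and given as percent inhibition versus untreated cells.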

[2] = system: human Factor 11 mRNA; assay: Dose-dependent inhibition of human Factor 11 in HepG2 cells, electroporation 0.7-20 uM (Example 4); conditions: for percent inhibition of Factor 11 at 0.7 μM / percent inhibition of Factor 11 at 2.2 μM / percent inhibition of Factor 11 at 6.7 μM / percent inhibition of Factor 11 at 20 μM: relative to untreated control cells
Method: (§1) The gapmers were also transfected via electroporation and their dose dependent inhibition of human Factor 11 mRNA was measured. Cells were plated at a density of 20,000 cells per well and transfected via electroporation with 0.7 μM, 2.2 μM, 6.7 μM, and 20 μM concentrations of antisense oligonucleotide, as specified in Table 10. After a treatment period of approximately 16 hours, RNA was isolated from the cells and Factor 11 mRNA levels were measured by quantitative real-time PCR. Human Factor 11 primer probe set RTS 2966 was used to measure mRNA levels. Factor 11 mRNA levels were adjusted according to total RNA content, as measured by RIBOGREEN. Results are presented as percent inhibition of Factor 11, relative to untreated control cells.

[3] = system: human Factor 11 mRNA; assay: Dose-dependent inhibition of human Factor 11 in HepG2 cells, lipofectin 9.375-75 nM (Example 4); conditions: for percent inhibition of Factor 11 at 9.375 nM / percent inhibition of Factor 11 at 18.75 nM / percent inhibition of Factor 11 at 37.5 nM / percent inhibition of Factor 11 at 75 nM: relative to untreated control cells
Method: as §1, with “Cells” for “The gapmers were also transfected via electroporation and their dose dependent inhibition of human Factor 11 mRNA was measured. Cells”, “10,000” for “20,000”, “using lipofectin reagent” for “via electroporation”, “9.375 nM, 18.75 nM, 37.5 nM” for “0.7 μM, 2.2 μM, 6.7 μM,”, “75 nM” for “20 μM”, “9.” for “10.”

[4] = HepG2, lipofectin, ~24 h, gapmers targeted to nucleobases 656 to 704 of SEQ ID NO: 1
[5] = HepG2 cells, lipofectin, gapmers targeted to nucleobases 1275 to 1318 of SEQ ID NO: 1

## 416827 (antisense eT*eA*eT*eG*e[5mC]*d[5mC]*d[5mC]*dT*dT*d[5mC]*dA*dT*dG*dT*d[5mC]*eT*eA*eG*eG*eT) [compound 416827]
[1]; [4]
  % inhibition: 93%
[2]
  IC50: 1.1 µM
  percent inhibition of Factor 11 at 0.7 μM: 37%
  percent inhibition of Factor 11 at 2.2 μM: 68%
  percent inhibition of Factor 11 at 6.7 μM: 87%
  percent inhibition of Factor 11 at 20 μM: 92%
[3]
  IC50: 0.023 µM
  percent inhibition of Factor 11 at 9.375 nM: 31%
  percent inhibition of Factor 11 at 18.75 nM: 42%
  percent inhibition of Factor 11 at 37.5 nM: 62%
  percent inhibition of Factor 11 at 75 nM: 77%

## 416842 (antisense eT*eG*eA*eG*eA*dT*dT*d[5mC]*dT*dT*dT*dG*dG*dG*d[5mC]*e[5mC]*eA*eT*eT*e[5mC]) [compound 416842]
[1]; HepG2 cells, lipofectin, gapmers targeted to nucleobases 1062 to 1091 of SEQ ID NO: 1
  % inhibition: 94%
[2]
  IC50: 5 µM
  percent inhibition of Factor 11 at 0.7 μM: 0%
  percent inhibition of Factor 11 at 2.2 μM: 10%
  percent inhibition of Factor 11 at 6.7 μM: 66%
  percent inhibition of Factor 11 at 20 μM: 92%
[3]
  IC50: 0.031 µM
  percent inhibition of Factor 11 at 9.375 nM: 18%
  percent inhibition of Factor 11 at 18.75 nM: 33%
  percent inhibition of Factor 11 at 37.5 nM: 62%
  percent inhibition of Factor 11 at 75 nM: 71%

## 416878 (antisense eG*eG*eT*d[5mC]*d[5mC]*dA*d[5mC]*dA*dT*dA*dA*dA*dT*dG*dT*d[5mC]*dT*eT*eT*eG) [compound 416878]
[1]; [4]
  % inhibition: 95%
[2]
  IC50: 4.3 µM
  percent inhibition of Factor 11 at 0.7 μM: 1%
  percent inhibition of Factor 11 at 2.2 μM: 26%
  percent inhibition of Factor 11 at 6.7 μM: 75%
  percent inhibition of Factor 11 at 20 μM: 85%
[3]
  IC50: 0.027 µM
  percent inhibition of Factor 11 at 9.375 nM: 22%
  percent inhibition of Factor 11 at 18.75 nM: 34%
  percent inhibition of Factor 11 at 37.5 nM: 60%
  percent inhibition of Factor 11 at 75 nM: 82%

## 416895 (antisense eT*eA*eT*dG*d[5mC]*d[5mC]*d[5mC]*dT*dT*d[5mC]*dA*dT*dG*dT*d[5mC]*dT*dA*eG*eG*eT) [compound 416895]
[1]; [4]
  % inhibition: 95%
[2]
  IC50: 3 µM
  percent inhibition of Factor 11 at 0.7 μM: 0%
  percent inhibition of Factor 11 at 2.2 μM: 62%
  percent inhibition of Factor 11 at 6.7 μM: 70%
  percent inhibition of Factor 11 at 20 μM: 91%
[3]
  IC50: 0.015 µM
  percent inhibition of Factor 11 at 9.375 nM: 39%
  percent inhibition of Factor 11 at 18.75 nM: 57%
  percent inhibition of Factor 11 at 37.5 nM: 66%
  percent inhibition of Factor 11 at 75 nM: 71%

## 416896 (antisense eT*eT*eA*dT*dG*d[5mC]*d[5mC]*d[5mC]*dT*dT*d[5mC]*dA*dT*dG*dT*d[5mC]*dT*eA*eG*eG) [compound 416896]
[1]; [4]
  % inhibition: 95%
[2]
  IC50: 3.2 µM
  percent inhibition of Factor 11 at 0.7 μM: 12%
  percent inhibition of Factor 11 at 2.2 μM: 35%
  percent inhibition of Factor 11 at 6.7 μM: 81%
  percent inhibition of Factor 11 at 20 μM: 89%
[3]
  IC50: 0.027 µM
  percent inhibition of Factor 11 at 9.375 nM: 22%
  percent inhibition of Factor 11 at 18.75 nM: 39%
  percent inhibition of Factor 11 at 37.5 nM: 57%
  percent inhibition of Factor 11 at 75 nM: 81%

## 416908 (antisense eG*e[5mC]*eA*dA*d[5mC]*d[5mC]*dG*dG*dG*dA*dT*dG*dA*dT*dG*dA*dG*eT*eG*e[5mC]) [compound 416908]
[1]; HepG2 cells, lipofectin, gapmers targeted to nucleobases 1018 to 1042 of SEQ ID NO: 1
  % inhibition: 98%
[2]
  IC50: 2.8 µM
  percent inhibition of Factor 11 at 0.7 μM: 7%
  percent inhibition of Factor 11 at 2.2 μM: 58%
  percent inhibition of Factor 11 at 6.7 μM: 74%
  percent inhibition of Factor 11 at 20 μM: 89%
[3]
  IC50: 0.016 µM
  percent inhibition of Factor 11 at 9.375 nM: 36%
  percent inhibition of Factor 11 at 18.75 nM: 57%
  percent inhibition of Factor 11 at 37.5 nM: 67%
  percent inhibition of Factor 11 at 75 nM: 76%

## 416922 (antisense eG*e[5mC]*eA*d[5mC]*dA*dG*dT*dT*dT*d[5mC]*dT*dG*dG*d[5mC]*dA*dG*dG*e[5mC]*e[5mC]*eT) [compound 416922]
[1]; [5]
  % inhibition: 94%
[2]
  IC50: 1.7 µM
  percent inhibition of Factor 11 at 0.7 μM: 35%
  percent inhibition of Factor 11 at 2.2 μM: 51%
  percent inhibition of Factor 11 at 6.7 μM: 77%
  percent inhibition of Factor 11 at 20 μM: 91%
[3]
  IC50: 0.036 µM
  percent inhibition of Factor 11 at 9.375 nM: 14%
  percent inhibition of Factor 11 at 18.75 nM: 25%
  percent inhibition of Factor 11 at 37.5 nM: 49%
  percent inhibition of Factor 11 at 75 nM: 75%

## 416923 (antisense eT*eG*e[5mC]*dA*d[5mC]*dA*dG*dT*dT*dT*d[5mC]*dT*dG*dG*d[5mC]*dA*dG*eG*e[5mC]*e[5mC]) [compound 416923]
[1]; [5]
  % inhibition: 96%
[2]
  IC50: 4 µM
  percent inhibition of Factor 11 at 0.7 μM: 15%
  percent inhibition of Factor 11 at 2.2 μM: 30%
  percent inhibition of Factor 11 at 6.7 μM: 60%
  percent inhibition of Factor 11 at 20 μM: 90%
[3]
  IC50: 0.023 µM
  percent inhibition of Factor 11 at 9.375 nM: 36%
  percent inhibition of Factor 11 at 18.75 nM: 47%
  percent inhibition of Factor 11 at 37.5 nM: 60%
  percent inhibition of Factor 11 at 75 nM: 67%

## 416924 (antisense eG*eT*eG*d[5mC]*dA*d[5mC]*dA*dG*dT*dT*dT*d[5mC]*dT*dG*dG*d[5mC]*dA*eG*eG*e[5mC]) [compound 416924]
[1]; [5]
  % inhibition: 96%
[2]
  IC50: 4.1 µM
  percent inhibition of Factor 11 at 0.7 μM: 22%
  percent inhibition of Factor 11 at 2.2 μM: 40%
  percent inhibition of Factor 11 at 6.7 μM: 63%
  percent inhibition of Factor 11 at 20 μM: 70%
[3]
  IC50: 0.036 µM
  percent inhibition of Factor 11 at 9.375 nM: 25%
  percent inhibition of Factor 11 at 18.75 nM: 38%
  percent inhibition of Factor 11 at 37.5 nM: 56%
  percent inhibition of Factor 11 at 75 nM: 59%

## 416926 (antisense eT*eG*eG*dT*dG*d[5mC]*dA*d[5mC]*dA*dG*dT*dT*dT*d[5mC]*dT*dG*dG*e[5mC]*eA*eG) [compound 416926]
[1]; [5]
  % inhibition: 93%
[2]
  IC50: 0.6 µM
  percent inhibition of Factor 11 at 0.7 μM: 47%
  percent inhibition of Factor 11 at 2.2 μM: 71%
  percent inhibition of Factor 11 at 6.7 μM: 91%
  percent inhibition of Factor 11 at 20 μM: 94%
[3]
  IC50: 0.022 µM
  percent inhibition of Factor 11 at 9.375 nM: 31%
  percent inhibition of Factor 11 at 18.75 nM: 43%
  percent inhibition of Factor 11 at 37.5 nM: 63%
  percent inhibition of Factor 11 at 75 nM: 82%

## 417018 (antisense eG*eG*d[5mC]*dA*dG*d[5mC]*dG*dG*dA*d[5mC]*dG*dG*d[5mC]*dA*dT*eT*eG*eG*eT*eG) [compound 417018]
[1]; [5]
  % inhibition: 82%

## 417019 (antisense eT*eG*dG*d[5mC]*dA*dG*d[5mC]*dG*dG*dA*d[5mC]*dG*dG*d[5mC]*dA*eT*eT*eG*eG*eT) [compound 417019]
[1]; [5]
  % inhibition: 84%

## 417020 (antisense e[5mC]*eT*dG*dG*d[5mC]*dA*dG*d[5mC]*dG*dG*dA*d[5mC]*dG*dG*d[5mC]*eA*eT*eT*eG*eG) [compound 417020]
[1]; [5]
  % inhibition: 84%

## 417021 (antisense eA*e[5mC]*dT*dG*dG*d[5mC]*dA*dG*d[5mC]*dG*dG*dA*d[5mC]*dG*dG*e[5mC]*eA*eT*eT*eG) [compound 417021]
[1]; [5]
  % inhibition: 74%
